Our source for the IC50 values is patent US7074789B2, “Kinase inhibitors” (Amgen Inc., priority 1999, dated 2006).

Holding throughout (format): biochemical
The target in assay [1] is T1, AKT (Homo sapiens, UniProt Q9Y243).
T1 construct: Kinases are expressed as either kinase domains or full length constructs; made in house
Put plainly: Kinase inhibition assay (33P transfer), AKT. The following applies: Table 2, kinase inhibition class; read-out: AKT3-1. The essentials:
(§1)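 Radiometric readout: 33P incorporated into surface-bound poly(Glu,Tyr) 4:1 or poly(Arg,Ser) 3:1 is counted by liquid scintillation after a 0.5% phosphoric acid wash. Enzymes were GST or polyHis fusions (kinase domain or full length) from E. coli or High Five insect cells.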

Assay [2] addresses T2, Itk (Homo sapiens, UniProt Q08881).
T2 construct: Kinases are expressed as either kinase domains or full length constructs; made in house
T2 sequence (Q08881 1-620): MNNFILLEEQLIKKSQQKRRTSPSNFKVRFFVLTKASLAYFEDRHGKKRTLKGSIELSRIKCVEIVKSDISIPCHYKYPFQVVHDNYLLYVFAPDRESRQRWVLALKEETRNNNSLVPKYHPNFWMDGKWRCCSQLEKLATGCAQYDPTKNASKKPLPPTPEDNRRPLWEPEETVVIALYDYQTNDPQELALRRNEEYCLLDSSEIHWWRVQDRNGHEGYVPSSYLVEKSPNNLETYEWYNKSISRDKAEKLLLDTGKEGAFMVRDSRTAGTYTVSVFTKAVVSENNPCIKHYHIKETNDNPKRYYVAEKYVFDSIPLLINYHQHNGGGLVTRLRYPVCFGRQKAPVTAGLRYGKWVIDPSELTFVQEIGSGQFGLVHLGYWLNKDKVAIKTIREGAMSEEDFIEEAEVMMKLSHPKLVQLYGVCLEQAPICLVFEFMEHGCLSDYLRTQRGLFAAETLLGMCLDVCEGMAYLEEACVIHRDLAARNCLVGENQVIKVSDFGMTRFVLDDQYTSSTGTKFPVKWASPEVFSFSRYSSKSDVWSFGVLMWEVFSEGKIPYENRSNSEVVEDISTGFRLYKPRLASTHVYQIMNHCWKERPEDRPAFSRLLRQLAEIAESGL
Put plainly: Kinase inhibition assay (33P transfer), Itk. As to conditions: Table 3; read-out: Itk-1. The essentials:
(§2)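 Using immobilised substrate copolymers (poly(Glu,Tyr) 4:1; poly(Arg,Ser) 3:1) and [33P]ATP, purified fusion kinases were allowed to react; plates were then rinsed in 0.5% phosphoric acid and counted in a scintillation detector. Half-maximal inhibition of label transfer defines IC50.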

The target of assay [3] is T3, IGFR-1 (Homo sapiens, UniProt P08069).
T3 construct: Kinases are expressed as either kinase domains or full length constructs; made in house
T3 sequence (P08069 31-1367): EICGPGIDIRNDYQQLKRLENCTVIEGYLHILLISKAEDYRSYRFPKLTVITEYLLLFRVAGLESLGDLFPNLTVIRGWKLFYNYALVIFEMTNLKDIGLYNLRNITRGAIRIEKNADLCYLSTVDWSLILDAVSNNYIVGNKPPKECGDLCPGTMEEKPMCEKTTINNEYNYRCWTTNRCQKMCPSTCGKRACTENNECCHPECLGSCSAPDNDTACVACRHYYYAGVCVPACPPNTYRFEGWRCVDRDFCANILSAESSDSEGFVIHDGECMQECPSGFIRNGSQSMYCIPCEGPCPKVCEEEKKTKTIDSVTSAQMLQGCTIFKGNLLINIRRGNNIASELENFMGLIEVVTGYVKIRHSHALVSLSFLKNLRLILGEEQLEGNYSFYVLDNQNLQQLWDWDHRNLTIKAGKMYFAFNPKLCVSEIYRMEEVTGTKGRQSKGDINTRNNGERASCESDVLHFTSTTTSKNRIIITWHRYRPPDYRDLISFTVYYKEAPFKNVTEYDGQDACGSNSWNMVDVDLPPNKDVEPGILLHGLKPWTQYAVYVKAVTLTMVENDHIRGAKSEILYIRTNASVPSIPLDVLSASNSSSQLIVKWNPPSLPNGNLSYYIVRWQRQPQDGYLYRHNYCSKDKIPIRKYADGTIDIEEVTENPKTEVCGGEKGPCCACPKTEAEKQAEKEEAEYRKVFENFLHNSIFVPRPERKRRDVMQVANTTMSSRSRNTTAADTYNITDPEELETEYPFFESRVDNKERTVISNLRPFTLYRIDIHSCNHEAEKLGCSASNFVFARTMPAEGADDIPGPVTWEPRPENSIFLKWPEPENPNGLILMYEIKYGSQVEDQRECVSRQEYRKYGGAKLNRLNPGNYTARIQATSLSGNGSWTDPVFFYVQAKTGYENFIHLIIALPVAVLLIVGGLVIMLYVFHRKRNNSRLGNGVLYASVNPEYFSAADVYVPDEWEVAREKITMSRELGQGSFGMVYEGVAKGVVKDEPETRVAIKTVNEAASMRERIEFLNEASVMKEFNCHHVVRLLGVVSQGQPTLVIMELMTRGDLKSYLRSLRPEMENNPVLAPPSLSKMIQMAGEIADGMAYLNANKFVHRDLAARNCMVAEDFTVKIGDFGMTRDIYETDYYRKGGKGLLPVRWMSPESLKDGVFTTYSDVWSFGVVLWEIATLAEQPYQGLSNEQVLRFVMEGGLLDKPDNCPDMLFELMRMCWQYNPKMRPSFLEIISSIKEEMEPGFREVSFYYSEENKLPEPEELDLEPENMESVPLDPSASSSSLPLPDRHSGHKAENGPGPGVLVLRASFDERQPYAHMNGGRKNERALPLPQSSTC
Put plainly: Kinase inhibition assay (33P transfer), IGFR-1. As to conditions: Table 2, kinase inhibition class.

Assay [4] concerns the target T4, EGFR (Homo sapiens, UniProt P00533).
T4 construct: Kinases are expressed as either kinase domains or full length constructs; made in house
Put plainly: Kinase inhibition assay (33P transfer), EGFR. As to conditions: Table 2, kinase inhibition class; read-out: EGFR-1. The essentials: as §2

Assay [5] addresses T5, Lck (Homo sapiens, UniProt P06239).
T5 construct: Kinases are expressed as either kinase domains or full length constructs; made in house
Put plainly: Kinase inhibition assay (33P transfer), Lck. As to conditions: Table 3; read-out: Lck-1. The essentials:
as §1

Assay [6] has as its target T6, c-Met (Homo sapiens, UniProt P08581).
T6 construct: Kinases are expressed as either kinase domains or full length constructs; made in house
Put plainly: Kinase inhibition assay (33P transfer), c-Met. The following applies: Table 2, kinase inhibition class; read-out: Met-1. A digest of the protocol: as §2

Assay [7] has as its target T7, Zap-70 (Homo sapiens, UniProt P43403).
T7 construct: Kinases are expressed as either kinase domains or full length constructs; made in house
T7 sequence (P43403 1-619): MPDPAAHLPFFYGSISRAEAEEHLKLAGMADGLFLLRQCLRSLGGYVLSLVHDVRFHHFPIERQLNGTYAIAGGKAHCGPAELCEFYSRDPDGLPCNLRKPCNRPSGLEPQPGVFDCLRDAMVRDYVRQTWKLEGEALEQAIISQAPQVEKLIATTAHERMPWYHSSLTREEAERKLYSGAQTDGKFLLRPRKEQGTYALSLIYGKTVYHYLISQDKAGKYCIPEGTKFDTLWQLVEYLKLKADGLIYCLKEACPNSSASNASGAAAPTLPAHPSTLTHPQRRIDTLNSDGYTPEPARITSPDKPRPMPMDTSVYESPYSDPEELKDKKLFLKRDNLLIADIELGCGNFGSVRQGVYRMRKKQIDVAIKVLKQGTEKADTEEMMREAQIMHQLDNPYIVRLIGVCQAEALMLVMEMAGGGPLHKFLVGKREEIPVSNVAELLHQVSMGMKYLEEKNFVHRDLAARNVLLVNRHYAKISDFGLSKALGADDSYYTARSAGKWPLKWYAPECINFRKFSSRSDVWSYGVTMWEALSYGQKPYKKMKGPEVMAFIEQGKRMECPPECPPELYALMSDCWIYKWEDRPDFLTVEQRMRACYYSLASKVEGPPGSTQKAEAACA
Put plainly: Kinase inhibition assay (33P transfer), Zap-70. The following applies: Table 3; read-out: Zap-1. The essentials:
as §1

Assay [8] deals with T8, Kdr (Homo sapiens, UniProt P35968).
T8 construct: Kinases are expressed as either kinase domains or full length constructs; made in house
Put plainly: Kinase inhibition assay (33P transfer), Kdr. As to conditions: Table 3; read-out: KDR-1. The essentials: as §1

T5 sequence (P06239 whole entry, species assumed, the tested form may be a part): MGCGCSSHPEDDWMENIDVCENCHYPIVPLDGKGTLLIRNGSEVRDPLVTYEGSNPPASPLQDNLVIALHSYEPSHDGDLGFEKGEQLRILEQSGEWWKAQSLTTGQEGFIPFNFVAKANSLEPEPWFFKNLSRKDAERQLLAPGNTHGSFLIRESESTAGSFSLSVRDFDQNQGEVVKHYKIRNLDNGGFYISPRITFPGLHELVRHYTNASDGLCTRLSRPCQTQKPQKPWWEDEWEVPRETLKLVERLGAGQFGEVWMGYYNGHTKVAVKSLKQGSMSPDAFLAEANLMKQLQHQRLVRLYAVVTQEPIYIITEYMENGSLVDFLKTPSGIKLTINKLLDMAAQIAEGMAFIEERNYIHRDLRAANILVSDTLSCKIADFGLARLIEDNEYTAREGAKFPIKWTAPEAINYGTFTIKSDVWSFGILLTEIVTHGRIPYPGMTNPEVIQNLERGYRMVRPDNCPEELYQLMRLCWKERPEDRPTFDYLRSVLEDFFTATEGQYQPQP
T6 sequence (P08581 25-1390): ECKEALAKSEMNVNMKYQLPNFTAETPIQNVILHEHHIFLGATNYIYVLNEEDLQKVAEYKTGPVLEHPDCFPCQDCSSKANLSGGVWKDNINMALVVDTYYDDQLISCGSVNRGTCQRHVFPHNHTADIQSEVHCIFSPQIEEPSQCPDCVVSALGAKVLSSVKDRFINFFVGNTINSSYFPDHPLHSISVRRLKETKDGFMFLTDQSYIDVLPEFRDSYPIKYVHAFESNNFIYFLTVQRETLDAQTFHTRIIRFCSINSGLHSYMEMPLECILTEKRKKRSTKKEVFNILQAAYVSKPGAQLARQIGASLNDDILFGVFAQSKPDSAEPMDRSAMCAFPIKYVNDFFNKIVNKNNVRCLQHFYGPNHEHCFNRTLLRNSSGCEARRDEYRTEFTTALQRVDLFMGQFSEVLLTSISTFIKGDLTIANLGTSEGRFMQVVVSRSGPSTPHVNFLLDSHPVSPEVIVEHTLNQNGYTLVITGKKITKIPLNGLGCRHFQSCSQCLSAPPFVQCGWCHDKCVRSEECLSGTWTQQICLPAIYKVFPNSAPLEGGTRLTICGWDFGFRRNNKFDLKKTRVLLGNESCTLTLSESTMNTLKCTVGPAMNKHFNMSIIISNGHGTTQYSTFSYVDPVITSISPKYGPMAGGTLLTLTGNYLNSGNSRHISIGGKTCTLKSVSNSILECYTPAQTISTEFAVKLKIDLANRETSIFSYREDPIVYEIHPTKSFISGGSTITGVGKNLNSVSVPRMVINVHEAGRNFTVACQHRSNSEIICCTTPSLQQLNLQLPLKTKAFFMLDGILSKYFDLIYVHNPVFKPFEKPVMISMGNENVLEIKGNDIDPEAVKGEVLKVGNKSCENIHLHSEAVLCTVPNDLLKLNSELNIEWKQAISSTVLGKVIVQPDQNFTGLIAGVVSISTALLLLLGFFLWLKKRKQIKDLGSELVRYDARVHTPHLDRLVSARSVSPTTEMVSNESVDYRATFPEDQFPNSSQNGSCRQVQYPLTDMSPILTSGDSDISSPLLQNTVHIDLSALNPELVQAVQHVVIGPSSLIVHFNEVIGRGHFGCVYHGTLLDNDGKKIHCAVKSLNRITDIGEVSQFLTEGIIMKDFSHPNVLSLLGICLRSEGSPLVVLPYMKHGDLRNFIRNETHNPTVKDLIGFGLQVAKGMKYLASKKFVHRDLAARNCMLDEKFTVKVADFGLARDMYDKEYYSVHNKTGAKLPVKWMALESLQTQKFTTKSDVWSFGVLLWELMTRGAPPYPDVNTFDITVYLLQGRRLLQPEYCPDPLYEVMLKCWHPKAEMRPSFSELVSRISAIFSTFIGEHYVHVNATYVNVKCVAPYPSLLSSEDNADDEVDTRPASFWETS
T4 sequence (P00533 25-1210, species assumed): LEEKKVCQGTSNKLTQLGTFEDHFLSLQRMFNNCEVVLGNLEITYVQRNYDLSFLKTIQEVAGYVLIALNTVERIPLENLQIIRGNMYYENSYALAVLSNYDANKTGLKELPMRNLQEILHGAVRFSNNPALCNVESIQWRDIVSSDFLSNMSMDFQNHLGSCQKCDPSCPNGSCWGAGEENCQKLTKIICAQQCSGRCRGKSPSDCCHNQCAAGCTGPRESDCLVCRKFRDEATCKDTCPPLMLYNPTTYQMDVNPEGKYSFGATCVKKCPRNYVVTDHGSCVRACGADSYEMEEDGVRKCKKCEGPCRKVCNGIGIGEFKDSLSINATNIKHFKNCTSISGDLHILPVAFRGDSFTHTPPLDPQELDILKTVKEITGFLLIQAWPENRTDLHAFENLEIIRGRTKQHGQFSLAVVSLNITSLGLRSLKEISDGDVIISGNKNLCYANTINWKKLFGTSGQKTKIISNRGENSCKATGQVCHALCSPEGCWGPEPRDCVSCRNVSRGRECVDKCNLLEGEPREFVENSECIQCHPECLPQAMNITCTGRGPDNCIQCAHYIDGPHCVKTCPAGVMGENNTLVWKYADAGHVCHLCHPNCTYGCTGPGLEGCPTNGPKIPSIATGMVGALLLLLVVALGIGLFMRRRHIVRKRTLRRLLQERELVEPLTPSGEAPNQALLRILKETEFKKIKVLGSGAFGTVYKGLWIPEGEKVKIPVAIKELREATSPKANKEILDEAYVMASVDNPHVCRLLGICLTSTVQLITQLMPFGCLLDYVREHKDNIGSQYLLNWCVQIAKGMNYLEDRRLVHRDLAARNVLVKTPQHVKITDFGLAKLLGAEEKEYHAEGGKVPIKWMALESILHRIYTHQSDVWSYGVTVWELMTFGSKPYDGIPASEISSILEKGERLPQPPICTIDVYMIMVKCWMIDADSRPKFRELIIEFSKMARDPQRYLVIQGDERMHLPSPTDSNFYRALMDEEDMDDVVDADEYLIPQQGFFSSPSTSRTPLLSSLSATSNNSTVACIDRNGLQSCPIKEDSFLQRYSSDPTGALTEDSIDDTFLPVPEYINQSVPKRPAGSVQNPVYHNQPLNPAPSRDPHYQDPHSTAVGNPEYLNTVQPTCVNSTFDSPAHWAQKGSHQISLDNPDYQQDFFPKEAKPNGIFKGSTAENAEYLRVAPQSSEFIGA
T1 sequence (Q9Y243 whole entry, the tested form may be a part): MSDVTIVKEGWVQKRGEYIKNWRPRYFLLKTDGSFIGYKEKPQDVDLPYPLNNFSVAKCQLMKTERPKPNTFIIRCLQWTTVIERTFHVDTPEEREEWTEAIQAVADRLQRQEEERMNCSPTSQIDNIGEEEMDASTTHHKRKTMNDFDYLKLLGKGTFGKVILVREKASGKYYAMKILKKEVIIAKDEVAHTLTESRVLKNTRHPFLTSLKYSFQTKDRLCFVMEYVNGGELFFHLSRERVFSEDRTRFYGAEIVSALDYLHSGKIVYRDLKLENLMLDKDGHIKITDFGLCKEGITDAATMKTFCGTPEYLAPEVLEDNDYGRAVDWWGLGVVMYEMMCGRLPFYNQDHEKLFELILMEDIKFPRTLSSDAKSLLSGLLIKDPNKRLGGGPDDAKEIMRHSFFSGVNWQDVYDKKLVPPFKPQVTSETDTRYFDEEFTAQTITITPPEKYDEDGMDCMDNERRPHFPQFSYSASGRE

On to `COC(=O)c1ccc(Nc2ncnc(-c3ccccc3)n2)cc1` [Compound 163], for which the IC50 in assay [1], in assay [2], in assay [3], in assay [4], in assay [5] and in assay [6] was > 14.7 µM in each case. Further, the IC50 in assay [7] and in assay [8] was > 14.7 µM throughout.

Take `CCOC(=O)Cc1ccc(Nc2ncnc(-c3ccccc3)n2)cc1` [Compound 164]: the IC50 in assay [1], in assay [2], in assay [3], in assay [4], in assay [5] and in assay [6] was > 13.5 µM each time. In addition, the IC50 in assay [7] and in assay [8] was > 13.5 µM each time.

`OCc1ccc(Nc2ncnc(-c3ccccc3)n2)cc1` [Compound 165]: the IC50 in assay [1], in assay [2], in assay [3], in assay [4], in assay [5] and in assay [6] was > 16.2 µM each time. The IC50 in assay [7] and in assay [8] was > 16.2 µM in each case.

`COc1cc(Nc2ncnc(N3CCCC3)n2)cc(OC)c1OC` [Compound 181]: the IC50 in assay [1], in assay [2], in assay [3], in assay [4], in assay [5] and in assay [6] was > 13.6 µM each time. The IC50 in assay [7] and in assay [8] was > 13.6 µM throughout.

On to `COc1cc(Nc2ncnc(-n3ccnc3)n2)cc(OC)c1OC` [Compound 183], for which the IC50 in assay [1], in assay [2], in assay [3], in assay [4], in assay [5] and in assay [6] was > 13.7 µM in each case. The IC50 in assay [7] was > 13.7 µM; in assay [8], 7.31 to 10.7 µM.

Regarding `COc1cc(Nc2ncnc(N3CCc4ccc([N+](=O)[O-])cc43)n2)cc(OC)c1OC` [Compound 191], the IC50 in assay [1], in assay [2], in assay [3], in assay [4], in assay [5] and in assay [6] was > 10.6 µM in each case. Further, the IC50 is > 10.6 µM in assay [7] and 5.65 to 8.25 µM in assay [8].

Consider `COc1cc(Nc2ncnc(-n3cc(OC(C)=O)c4ccccc43)n2)cc(OC)c1OC` [Compound 205], for which the IC50 in assay [1], in assay [2], in assay [3], in assay [4], in assay [5] and in assay [6] was > 10.3 µM each time. Besides, the figures for the IC50 in assay [7] and in assay [8] were > 10.3 µM and 5.51 to 8.04 µM, respectively.

Take `COc1cc(Nc2ncnc(N3CCOCC3)n2)cc(OC)c1OC` [Compound 209]: the IC50 in assay [1] was 10.1 to 13 µM; in assay [2], > 13 µM; in assay [3] it was > 13 µM; in assay [4] it was > 13 µM; in assay [5], > 13 µM; in assay [6], > 13 µM. For the same compound, the IC50 in assay [7] and in assay [8] was > 13 µM each time.

Consider `COc1cc(Nc2ncnc(N3CCN(C(=O)OC(C)(C)C)CC3)n2)cc(OC)c1OC` [Compound 211], for which the IC50 in assay [1], in assay [2], in assay [3], in assay [4], in assay [5] and in assay [6] was > 10.1 µM throughout. Further, the IC50 in assay [7] is > 10.1 µM; in assay [8], 5.38 to 7.84 µM.

As to `COc1cc(Nc2ncnc(N3CCN(c4ccccn4)CC3)n2)cc(OC)c1OC` [Compound 213], the IC50 in assay [1], in assay [2], in assay [3], in assay [4], in assay [5] and in assay [6] was > 10.6 µM in each case. Moreover, the IC50 in assay [7] is > 10.6 µM; in assay [8], 0.945 to 5.67 µM.

With `COc1cc(Nc2ncnc(N3CCN(c4ncccn4)CC3)n2)cc(OC)c1OC` [Compound 214], the IC50 in assay [1] was > 10.6 µM; in assay [2], > 10.6 µM; in assay [3], > 10.6 µM; in assay [4], > 10.6 µM; in assay [5], > 10.6 µM; in assay [6], 5.65 to 8.25 µM. Besides, the IC50 in assay [7] is > 10.6 µM; in assay [8], 0.942 to 5.65 µM.

Regarding `COc1cc(Nc2ncnc(-c3cccs3)n2)cc(OC)c1OC` [Compound 217], the IC50 was > 13.1 µM in assay [1]; > 13.1 µM in assay [2]; > 13.1 µM in assay [3]; > 13.1 µM in assay [4]; 1.16 to 6.97 µM in assay [5]; 10.2 to 13.1 µM in assay [6]. Moreover, the IC50 is > 13.1 µM in assay [7] and 6.97 to 10.2 µM in assay [8].

As to `COc1cc(Nc2ncnc(-c3cccnc3)n2)cc(OC)c1OC` [Compound 219], the IC50 in assay [1], in assay [2], in assay [3], in assay [4], in assay [5] and in assay [6] was > 13.3 µM in each case. Besides, the values for the IC50 in assay [7] and in assay [8] were > 13.3 µM and 1.18 to 7.07 µM, respectively.

For `COc1cc(Nc2ncnc(Nc3ncncn3)n2)cc(OC)c1OC` [Compound 254], the IC50 in assay [1], in assay [2], in assay [3], in assay [4], in assay [5] and in assay [6] was > 12.6 µM throughout. The IC50 in assay [7] and in assay [8] was > 12.6 µM in each case.

In the case of `COc1cc(Nc2ncnc(N3CCc4ccccc4C3)n2)cc(OC)c1OC` [Compound 326], the IC50 in assay [1], in assay [2], in assay [3], in assay [4], in assay [5] and in assay [6] was > 11.4 µM each time. The IC50 in assay [7] and in assay [8] was > 11.4 µM each time.

For `COc1cc(Nc2ncnc(-n3ccc4cccnc43)n2)cc(OC)c1OC` [Compound 327], the IC50 in assay [1] was > 11.9 µM; in assay [2], 1.06 to 6.34 µM; in assay [3], 6.34 to 9.25 µM; in assay [4], > 11.9 µM; in assay [5], 1.06 to 6.34 µM; in assay [6], > 11.9 µM. Moreover, the IC50 in assay [7] and in assay [8] was > 11.9 µM each time.

Turning to `COc1cc(Nc2ncnc(-c3ccnc(Cl)c3)n2)cc(OC)c1OC` [Compound 331], the IC50 in assay [1], in assay [2], in assay [3], in assay [4], in assay [5] and in assay [6] was > 12 µM in each case. Further, the IC50 in assay [7] and in assay [8] was > 12 µM each time.

Turning to `COc1ccc2c(c1)c(CCN(C)C)cn2-c1ncnc(Nc2cc(OC)c(OC)c(OC)c2)n1` [Compound 333], the IC50 in assay [1], in assay [2], in assay [3], in assay [4], in assay [5] and in assay [6] was > 9.4 µM in each case. The IC50 in assay [7] and in assay [8] was > 9.4 µM each time.
